Laboratory results: patent publication US20260034119A1, “5-METHOXY-N,N-[…][…], THEIR […], AND METHODS FOR TREATMENT OF NEUROLOGICAL, […], AND SUBSTANCE USE DISORDERS” (priority 2023, published 2026)
“Also recorded” adds a separate entry of the source. Where two headings read alike, the source gives them in different places.

Legend:
5-HT2A = 5-HT2A (Homo sapiens, UniProt P28223)
OCT1 = target: T1, OCT1 (Homo sapiens, UniProt O15245); assay: OCT1 uptake inhibition; format: cell-based; conditions: compared with 5-HT1A
T1 construct: expressed in transfected cells; host or cells: Flp-In T-Rex cell line (ThermoFisher), tetracycline-induced
T1 sequence (O15245 1-554): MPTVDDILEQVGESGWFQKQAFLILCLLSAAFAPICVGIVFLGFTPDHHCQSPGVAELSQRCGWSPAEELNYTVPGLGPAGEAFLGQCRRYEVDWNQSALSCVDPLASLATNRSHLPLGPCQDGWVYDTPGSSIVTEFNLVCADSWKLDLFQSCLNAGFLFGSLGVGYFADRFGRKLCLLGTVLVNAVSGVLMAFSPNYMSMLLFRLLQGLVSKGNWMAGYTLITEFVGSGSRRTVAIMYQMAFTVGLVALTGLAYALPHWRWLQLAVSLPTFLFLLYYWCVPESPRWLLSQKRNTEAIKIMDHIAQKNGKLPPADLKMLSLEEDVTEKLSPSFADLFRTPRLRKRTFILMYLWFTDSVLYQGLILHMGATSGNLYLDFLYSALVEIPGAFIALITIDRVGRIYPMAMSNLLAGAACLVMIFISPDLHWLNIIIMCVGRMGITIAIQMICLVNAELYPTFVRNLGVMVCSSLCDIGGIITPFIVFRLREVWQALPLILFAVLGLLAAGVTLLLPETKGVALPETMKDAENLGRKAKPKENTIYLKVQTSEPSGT
Protocol: Inducible cell lines stably expressing OCT1, OCT2, or PMAT were generated using the Flp-In T-Rex cell line (ThermoFisher) according to manufacturer recommendations. Cells were maintained in DMEM supplemented with 10% FBS, 100 μg/ml hygromycin B (GoldBio), and 10 μg/ml blasticidin (GoldBio). To measure uptake inhibition, cells were seeded into poly-L-lysine coated clear-bottom 384-well plates at a density of 25,000 cells per well in DMEM containing 10% FBS and 2 μg/ml of tetracycline (Sigma) to induce transporter expression. […] Cells were incubated with drug for 30 min at 37° C. Fluorescent substrate was then added to the cells. […] Cells were incubated with respective substrates for an hour at 37° C. OCT2 cells were read directly in a Victor NIVO plate reader using 495 nm excitation and 580 emission filter for 0.1 s. OCT1 and PMAT cells were washed in HBSS supplemented with 20 mM HEPES pH 7.4 before reading in a Victor NIVO plate reader using 435 nm excitation and 480 nm emission filter for 0.1 s.

C57BL/6J mice [1] = assay: Head twitch response (HTR); format: in vivo, mouse; conditions: s.c., presence or absence of 5-HT1A antagonist WAY-100635
Protocol: The head-twitch response evaluation was performed by trained observers who were blinded to both drug and dose. Mice were habituated to the testing room 30 min. The body weight of each mouse was recorded. The HTR was defined as a rapid rotational movement of the head around the longitudinal axis of the animals' body. Mice were administered with vehicle or WAY100,635 (1 mg/kg or 2 mg/kg, sc). Fifteen minutes after the pretreatment injection mice were administered either 4F, 5-MeO-MET (0.1, 0.3, 1 or 3 mg/kg, sc) or 5-MeO-MET (0.3, 1, 3, and 10 mg/kg, sc) and placed in a novel observation cage. An overhead camera (GoPro HERO9 at a 120 Hz, San Mateo, CA, US) recorded their movements. Observers scored HTR from recorded footage for the first 10-min period.

SERT = target: T2, SERT (Homo sapiens, UniProt P31645); assay: Serotonin transporter (SERT) uptake inhibition; format: cell-based; conditions: compared with 5-HT1A
T2 construct: expressed in transfected cells; host or cells: HEK293-T
T2 sequence (P31645 whole entry, species assumed): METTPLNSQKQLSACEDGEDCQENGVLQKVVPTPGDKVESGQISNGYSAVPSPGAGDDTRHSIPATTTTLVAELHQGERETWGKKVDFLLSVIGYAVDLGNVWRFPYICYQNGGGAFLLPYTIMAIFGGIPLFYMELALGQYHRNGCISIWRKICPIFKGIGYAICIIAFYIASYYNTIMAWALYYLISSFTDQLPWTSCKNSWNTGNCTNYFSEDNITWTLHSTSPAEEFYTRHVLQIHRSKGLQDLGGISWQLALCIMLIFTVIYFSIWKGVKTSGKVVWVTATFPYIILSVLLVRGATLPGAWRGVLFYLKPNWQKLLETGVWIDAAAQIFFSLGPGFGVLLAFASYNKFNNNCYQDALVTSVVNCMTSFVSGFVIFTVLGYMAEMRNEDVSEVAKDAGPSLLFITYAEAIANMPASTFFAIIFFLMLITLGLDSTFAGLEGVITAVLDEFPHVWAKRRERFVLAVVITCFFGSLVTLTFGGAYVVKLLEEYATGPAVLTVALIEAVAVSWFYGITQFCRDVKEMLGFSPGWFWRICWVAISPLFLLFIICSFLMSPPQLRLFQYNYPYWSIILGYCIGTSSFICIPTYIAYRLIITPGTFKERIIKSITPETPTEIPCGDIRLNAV
Protocol: The uptake inhibition assay was performed the following day. […] To each well, 30 μl of HBSS containing 20 mM HEPES, 0.1% BSA, and 0.01% ascorbic acid and 15 μl of 3× drug dilutions were added. Cells were then incubated at 37° C. for 45 min. A final concentration of 10 μM FFN246 (Aobious) (Henke et al. 2018) was added to each well, and cells were incubated for an additional hour at 37° C. […] Data was plotted as a function of drug concentration, normalized to % citalopram inhibition, and analyzed using “log(inhibitor) vs. response” in GraphPad Prism 8.0.

5-HT2A V366N = target: T3, 5-HT2A V366N (Homo sapiens, UniProt P28223, V366N); assay: Gq BRET at mutant 5-HT2A V366N; format: cell-based; conditions: Gq BRET, 5-HT2A V366N^7.39
T3 construct: expressed in transfected cells; host or cells: HEK293-T
T3 sequence (P28223 whole entry V366N): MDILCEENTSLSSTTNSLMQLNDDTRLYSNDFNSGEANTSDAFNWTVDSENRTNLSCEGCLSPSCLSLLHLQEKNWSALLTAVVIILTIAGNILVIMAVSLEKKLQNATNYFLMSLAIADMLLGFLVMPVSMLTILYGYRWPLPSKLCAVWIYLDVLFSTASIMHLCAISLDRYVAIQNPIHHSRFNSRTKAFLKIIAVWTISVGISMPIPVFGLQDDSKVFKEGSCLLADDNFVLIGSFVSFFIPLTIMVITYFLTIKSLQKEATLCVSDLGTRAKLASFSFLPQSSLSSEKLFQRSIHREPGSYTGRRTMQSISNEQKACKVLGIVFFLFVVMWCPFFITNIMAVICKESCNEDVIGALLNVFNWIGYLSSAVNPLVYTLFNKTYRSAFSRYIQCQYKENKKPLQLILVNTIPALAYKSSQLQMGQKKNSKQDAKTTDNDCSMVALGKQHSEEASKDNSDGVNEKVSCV

C57BL/6J mice [2] = assay: Sucrose preference test after chronic social defeat stress; format: in vivo, mouse; conditions: stressed mice
Excerpt: The sucrose preference test is a volitional two-bottle choice procedure in which mice are given the choice between consuming water and a 1% sucrose solution. This paradigm has been used extensively to assess the effects of stress-induced anhedonia. On day 10 of CSDS mice were individually housed and habituated to two bottles containing just water. Twenty-four hours later, following the SI test, one bottle was replaced with a 1% sucrose solution (w/v) made with water from the animal vivarium. Mice had ad libitum overnight access to both bottles and preference for sucrose over water was calculated as follows: [sucrose/(sucrose+water)*100]. Data were averaged from two independent experiments. A total of 27 mice were administered vehicle (9 control, 18 stress), 27 received 4-F, 5-MeO-PyrT (9 control, 18 stress), 15 received WAY-100635 (5 control, 10 stress), and 15 received 4-F, 5-MeO-PyrT+WAY-100635 (5 control, 10 stress). More animals were used for the stressed groups due to the inherent resilience of mice to social defeat stress (Krishnan et al. 2007). Analysis of different treatment conditions of control and stressed animals was done in GraphPad Prism using two-way ANOVA.

5-HT2A, sequence (P28223 whole entry): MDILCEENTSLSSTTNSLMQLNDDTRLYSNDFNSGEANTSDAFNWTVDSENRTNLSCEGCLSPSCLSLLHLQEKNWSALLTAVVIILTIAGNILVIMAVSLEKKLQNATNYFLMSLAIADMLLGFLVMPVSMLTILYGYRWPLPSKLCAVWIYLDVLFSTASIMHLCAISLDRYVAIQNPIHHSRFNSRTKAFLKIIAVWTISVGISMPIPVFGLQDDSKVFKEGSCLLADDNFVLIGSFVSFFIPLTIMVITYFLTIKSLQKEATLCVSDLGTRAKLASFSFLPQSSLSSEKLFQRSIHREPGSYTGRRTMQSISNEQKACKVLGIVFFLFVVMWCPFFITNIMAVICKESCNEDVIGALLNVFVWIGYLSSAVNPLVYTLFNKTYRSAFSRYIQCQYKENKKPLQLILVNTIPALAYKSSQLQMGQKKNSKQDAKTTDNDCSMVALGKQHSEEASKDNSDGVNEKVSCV

COc1ccc2[nH]cc(CCN3CCCC3)c2c1F [4-F, 5-MeO-PyrT, 4-Fluoro, 5-methoxypyrrolidinyl-tryptamine]
EC50 (5-HT2A; Gq BRET, 5-HT2A WT): 300 nM
pEC50 (5-HT2A; Gq BRET, 5-HT2A WT): (6.52,
EC50 (5-HT2A; read-out: Gq BRET EC50): 300 nM
activity at other neurotransmitter transporters (OCT1) (OCT1): substantially lower activity
head-twitch response (HTR), measure of 5-HT2A-mediated hallucinogenic activity (C57BL/6J mice [1]): no preclinical signs of hallucinogenic effects; also recorded: did not produce notable HTR
activity at the serotonin transporter (SERT): substantially lower activity
pEC50 (5-HT2A V366N): (6.8,
EC50 (5-HT2A V366N; read-out: EC50): 157 nM
effect on sucrose preference under WAY-100635 co-administration (C57BL/6J mice [2]): reversed the effects
sucrose preference (C57BL/6J mice [2]; relative to vehicle-treated animals): significantly increased sucrose preference
